Test results: patent publication US11020399B2, “Intermediates useful in the synthesis of compounds as modulators of protein kinases” (Rhizen Pharmaceuticals SA, priority 2011, dated 2021)
Structures can show the parent of a compound that is named as a salt.

Tests used:
PI3kγ = PI3kγ (Homo sapiens, UniProt P48736); experiment: Fluorescent (HTRF) determination of PI3 kinase enzyme activity, PI3Kγ; assay type: biochemical; conditions: for inhibition at 0.3 µM: 300 nM (Examples 1-59)
How it was run: (§1)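 HTRF detection of PIP3 from PIP2 (1.38 μM in reaction mix) with 10 mM MgCl2, 5 mM DTT; compound preincubated with enzyme 10 min, then ATP (400 μM addition) 30 min at room temperature. Percent inhibition versus blank and enzyme controls at 1 μM (α, β) and 0.3 or 0.1 μM (γ, δ); IC50 also fitted.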

PI3kδ = PI3kδ (Homo sapiens, UniProt O00329); experiment: Fluorescent (HTRF) determination of PI3 kinase enzyme activity, PI3Kδ; assay type: biochemical; conditions: for inhibition at 0.1 µM: 100 nM (Examples 60-137); for inhibition at 0.3 µM: 300 nM (Examples 1-59)
Sequence of PI3kδ (O00329 whole entry): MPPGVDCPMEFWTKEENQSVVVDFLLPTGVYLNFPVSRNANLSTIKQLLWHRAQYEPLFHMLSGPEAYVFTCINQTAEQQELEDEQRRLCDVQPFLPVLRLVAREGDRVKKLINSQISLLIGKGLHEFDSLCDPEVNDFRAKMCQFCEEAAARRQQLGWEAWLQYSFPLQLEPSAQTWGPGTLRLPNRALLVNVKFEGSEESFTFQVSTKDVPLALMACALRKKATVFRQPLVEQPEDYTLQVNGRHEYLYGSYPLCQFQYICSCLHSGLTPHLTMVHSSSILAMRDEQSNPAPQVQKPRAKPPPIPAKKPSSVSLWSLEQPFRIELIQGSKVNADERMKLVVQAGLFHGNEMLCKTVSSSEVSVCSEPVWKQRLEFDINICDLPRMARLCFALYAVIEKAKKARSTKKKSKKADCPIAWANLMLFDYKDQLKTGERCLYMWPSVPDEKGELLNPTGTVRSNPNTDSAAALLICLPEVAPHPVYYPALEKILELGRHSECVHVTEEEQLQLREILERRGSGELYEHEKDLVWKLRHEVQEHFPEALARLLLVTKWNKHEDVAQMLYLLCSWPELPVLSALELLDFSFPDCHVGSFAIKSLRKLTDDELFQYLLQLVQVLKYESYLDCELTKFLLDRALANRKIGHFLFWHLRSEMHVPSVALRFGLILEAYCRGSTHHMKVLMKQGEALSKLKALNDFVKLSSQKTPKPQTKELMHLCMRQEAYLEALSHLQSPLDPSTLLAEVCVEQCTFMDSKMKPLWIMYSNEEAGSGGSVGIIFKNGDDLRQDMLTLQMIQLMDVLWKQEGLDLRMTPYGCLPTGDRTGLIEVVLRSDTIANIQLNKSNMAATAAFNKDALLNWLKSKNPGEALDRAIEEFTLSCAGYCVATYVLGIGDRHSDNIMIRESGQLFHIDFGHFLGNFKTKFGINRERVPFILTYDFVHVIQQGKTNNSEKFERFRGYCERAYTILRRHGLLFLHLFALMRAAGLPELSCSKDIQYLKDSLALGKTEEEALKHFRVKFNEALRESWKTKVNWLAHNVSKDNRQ
Sequence of PI3kδ (P27986 whole entry partner): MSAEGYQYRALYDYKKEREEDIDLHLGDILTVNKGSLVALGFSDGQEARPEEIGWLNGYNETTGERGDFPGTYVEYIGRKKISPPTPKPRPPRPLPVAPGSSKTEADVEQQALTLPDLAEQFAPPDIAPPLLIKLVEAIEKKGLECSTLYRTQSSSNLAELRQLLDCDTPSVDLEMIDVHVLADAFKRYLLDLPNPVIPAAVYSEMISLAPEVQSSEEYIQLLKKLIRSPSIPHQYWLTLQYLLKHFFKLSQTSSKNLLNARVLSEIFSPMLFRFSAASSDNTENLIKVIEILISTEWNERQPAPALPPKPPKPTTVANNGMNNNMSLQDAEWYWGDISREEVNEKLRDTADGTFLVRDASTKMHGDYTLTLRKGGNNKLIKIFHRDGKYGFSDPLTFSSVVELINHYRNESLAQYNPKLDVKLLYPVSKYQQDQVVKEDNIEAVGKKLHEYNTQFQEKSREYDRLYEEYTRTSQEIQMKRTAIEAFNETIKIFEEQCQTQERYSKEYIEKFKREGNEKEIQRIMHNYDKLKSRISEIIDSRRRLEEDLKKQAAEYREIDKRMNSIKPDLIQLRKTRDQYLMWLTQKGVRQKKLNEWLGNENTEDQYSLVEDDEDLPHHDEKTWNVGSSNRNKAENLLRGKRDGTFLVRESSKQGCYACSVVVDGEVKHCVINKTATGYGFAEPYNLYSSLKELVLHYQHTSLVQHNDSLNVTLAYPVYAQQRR
How it was run: as §1

PI3kβ = PI3kβ (Homo sapiens, UniProt P42338); experiment: Fluorescent (HTRF) determination of PI3 kinase enzyme activity, PI3Kβ; assay type: biochemical; conditions: 1 uM
Sequence of PI3kβ (P42338 whole entry): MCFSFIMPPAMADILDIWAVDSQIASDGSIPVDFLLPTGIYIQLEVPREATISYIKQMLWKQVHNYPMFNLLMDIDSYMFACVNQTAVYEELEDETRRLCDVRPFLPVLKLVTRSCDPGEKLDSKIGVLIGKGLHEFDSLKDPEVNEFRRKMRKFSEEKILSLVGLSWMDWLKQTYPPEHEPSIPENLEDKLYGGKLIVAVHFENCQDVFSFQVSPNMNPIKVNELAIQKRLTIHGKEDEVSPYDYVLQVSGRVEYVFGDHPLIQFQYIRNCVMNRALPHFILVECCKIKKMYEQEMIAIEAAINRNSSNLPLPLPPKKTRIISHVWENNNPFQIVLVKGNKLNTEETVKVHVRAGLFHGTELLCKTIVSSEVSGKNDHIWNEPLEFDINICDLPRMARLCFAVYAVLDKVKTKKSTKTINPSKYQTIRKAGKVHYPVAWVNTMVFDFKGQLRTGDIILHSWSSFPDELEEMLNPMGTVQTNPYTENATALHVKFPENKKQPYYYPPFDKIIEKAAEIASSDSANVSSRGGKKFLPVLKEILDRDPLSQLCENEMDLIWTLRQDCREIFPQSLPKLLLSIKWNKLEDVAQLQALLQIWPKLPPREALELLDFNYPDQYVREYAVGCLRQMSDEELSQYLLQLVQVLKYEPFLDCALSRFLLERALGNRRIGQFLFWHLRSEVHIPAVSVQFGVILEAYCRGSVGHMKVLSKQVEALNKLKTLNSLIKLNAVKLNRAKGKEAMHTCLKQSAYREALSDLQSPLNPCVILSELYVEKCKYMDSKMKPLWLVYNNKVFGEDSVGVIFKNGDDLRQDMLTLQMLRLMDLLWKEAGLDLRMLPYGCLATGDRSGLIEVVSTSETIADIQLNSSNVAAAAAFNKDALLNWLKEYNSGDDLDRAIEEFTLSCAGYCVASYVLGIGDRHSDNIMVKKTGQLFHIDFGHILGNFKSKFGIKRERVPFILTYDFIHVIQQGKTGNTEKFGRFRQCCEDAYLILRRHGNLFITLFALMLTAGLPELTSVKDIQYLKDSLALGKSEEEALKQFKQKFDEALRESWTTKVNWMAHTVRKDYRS
Sequence of PI3kβ (P27986 whole entry partner): as the sequence (P27986 whole entry partner) above
How it was run: as §1

PI3kα = PI3kα (Homo sapiens, UniProt P42336); experiment: Fluorescent (HTRF) determination of PI3 kinase enzyme activity, PI3Kα; assay type: biochemical; conditions: 1 uM
Sequence of PI3kα (P42336 whole entry): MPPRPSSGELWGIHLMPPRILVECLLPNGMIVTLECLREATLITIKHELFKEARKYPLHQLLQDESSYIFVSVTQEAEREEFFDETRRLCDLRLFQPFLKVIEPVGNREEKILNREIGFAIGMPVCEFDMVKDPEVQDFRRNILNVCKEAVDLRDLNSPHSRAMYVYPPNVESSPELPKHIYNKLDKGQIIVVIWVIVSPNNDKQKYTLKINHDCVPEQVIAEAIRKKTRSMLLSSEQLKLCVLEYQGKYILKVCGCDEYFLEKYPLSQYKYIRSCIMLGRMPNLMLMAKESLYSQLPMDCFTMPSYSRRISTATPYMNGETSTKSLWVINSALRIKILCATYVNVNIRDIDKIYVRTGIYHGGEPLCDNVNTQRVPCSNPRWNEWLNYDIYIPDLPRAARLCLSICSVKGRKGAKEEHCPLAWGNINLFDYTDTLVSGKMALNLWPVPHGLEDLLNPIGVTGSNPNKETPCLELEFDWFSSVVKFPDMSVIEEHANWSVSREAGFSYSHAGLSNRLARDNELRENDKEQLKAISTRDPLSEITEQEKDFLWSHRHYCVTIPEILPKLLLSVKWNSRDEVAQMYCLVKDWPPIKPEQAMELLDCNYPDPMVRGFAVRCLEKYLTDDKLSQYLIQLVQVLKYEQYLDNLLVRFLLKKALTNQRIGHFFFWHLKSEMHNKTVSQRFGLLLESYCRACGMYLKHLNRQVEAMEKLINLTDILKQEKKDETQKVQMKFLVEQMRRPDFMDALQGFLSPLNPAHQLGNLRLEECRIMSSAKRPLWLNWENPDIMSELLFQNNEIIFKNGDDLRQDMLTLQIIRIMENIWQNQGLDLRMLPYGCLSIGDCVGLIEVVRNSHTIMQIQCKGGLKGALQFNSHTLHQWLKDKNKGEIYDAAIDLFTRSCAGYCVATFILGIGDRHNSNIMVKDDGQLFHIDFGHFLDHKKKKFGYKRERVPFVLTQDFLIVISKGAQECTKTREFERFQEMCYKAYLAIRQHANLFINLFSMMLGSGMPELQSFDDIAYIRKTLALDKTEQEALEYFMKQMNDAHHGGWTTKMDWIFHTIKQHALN
Sequence of PI3kα (P27986 whole entry partner): as the sequence (P27986 whole entry partner) above
How it was run: as §1

Sequence of PI3kγ (P48736 whole entry): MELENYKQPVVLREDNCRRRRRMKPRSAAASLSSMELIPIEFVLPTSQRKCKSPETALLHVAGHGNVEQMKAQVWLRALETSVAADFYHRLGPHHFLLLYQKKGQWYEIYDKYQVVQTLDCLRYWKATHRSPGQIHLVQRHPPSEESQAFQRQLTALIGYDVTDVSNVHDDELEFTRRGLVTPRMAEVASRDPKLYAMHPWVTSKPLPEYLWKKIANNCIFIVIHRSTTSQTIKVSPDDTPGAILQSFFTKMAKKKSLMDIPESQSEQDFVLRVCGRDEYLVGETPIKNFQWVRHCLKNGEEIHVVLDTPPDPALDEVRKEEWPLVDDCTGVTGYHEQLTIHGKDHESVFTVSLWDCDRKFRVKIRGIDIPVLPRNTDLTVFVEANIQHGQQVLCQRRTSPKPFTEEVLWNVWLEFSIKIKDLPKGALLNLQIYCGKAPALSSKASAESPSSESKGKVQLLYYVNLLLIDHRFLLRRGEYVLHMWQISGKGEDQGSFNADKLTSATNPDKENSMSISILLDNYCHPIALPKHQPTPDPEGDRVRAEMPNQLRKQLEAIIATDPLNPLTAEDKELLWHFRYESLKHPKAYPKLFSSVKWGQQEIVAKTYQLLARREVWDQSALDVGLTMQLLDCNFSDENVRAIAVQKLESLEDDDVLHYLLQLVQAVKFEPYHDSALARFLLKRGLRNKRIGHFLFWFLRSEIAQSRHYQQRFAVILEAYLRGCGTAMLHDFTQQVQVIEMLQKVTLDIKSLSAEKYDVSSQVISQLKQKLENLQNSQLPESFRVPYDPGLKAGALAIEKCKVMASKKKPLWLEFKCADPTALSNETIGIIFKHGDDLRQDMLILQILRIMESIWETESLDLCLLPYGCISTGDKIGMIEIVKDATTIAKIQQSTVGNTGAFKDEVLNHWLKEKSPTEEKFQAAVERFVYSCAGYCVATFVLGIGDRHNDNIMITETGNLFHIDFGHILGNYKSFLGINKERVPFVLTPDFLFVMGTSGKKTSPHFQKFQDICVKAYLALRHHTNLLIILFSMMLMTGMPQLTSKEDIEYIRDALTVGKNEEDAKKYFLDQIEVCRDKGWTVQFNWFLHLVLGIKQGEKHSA

| Structure (SMILES) | melting point | inhibition at 0.1 µM (PI3kδ) | inhibition at 0.3 µM (PI3kγ) | inhibition at 0.3 µM (PI3kδ) | inhibition at 1 µM (PI3kβ) | inhibition at 1 µM (PI3kα) | further results |
| --- | --- | --- | --- | --- | --- | --- | --- |
| CC(c1oc2cccc(F)c2c(=O)c1-c1cccc(F)c1)n1nc(-c2ccc3c(c2)C(=O)NC3)c2c(N)ncnc21 (stereo not shown) [Example 122, 6-(4-amino-1-(1-(5-fluoro-3-(3-fluorophenyl)-4-oxo-4H-chromen-2-yl)ethyl)-1H-pyrazolo[3,4-d]pyrimidin-3-yl)isoindolin-1-one] | 242 to 245 °C | 25 to 50% |  |  |  |  | inhibition at 0.1 µM (PI3kγ; 100 nM (Examples 60-137)): 0 to 25% |
| COc1nc(N[C@H](C)c2oc3cccc(F)c3c(=O)c2-c2cccc(F)c2)c2nc[nH]c2n1 (single isomer, unassigned) [Example 135] | 219 to 222 °C | 25 to 50% |  |  |  |  | inhibition at 0.1 µM (PI3kγ; 100 nM (Examples 60-137)): 25 to 50% |
| CC(c1oc2cccc(F)c2c(=O)c1-c1cccc(F)c1)n1cnc2c(N)nc(F)nc21 (stereo not shown) (as salt: potassium) [Example 106, 2-(1-(6-amino-2-fluoro-9H-purin-9-yl)ethyl)-5-fluoro-3-(3-fluorophenyl)-4H-chromen-4-one] | 255 to 258 °C |  |  |  |  |  |  |
| CC(C)NC(=O)c1ccc(-c2nn(C(C)c3oc4cccc(F)c4c(=O)c3-c3cccc(F)c3)c3ncnc(N)c23)cc1F (stereo not shown) [Example 53, 4-(4-amino-1-(1-(5-fluoro-3-(3-fluorophenyl)-4-oxo-4H-chromen-2-yl)ethyl)-1H-pyrazolo[3,4-d]pyrimidin-3-yl)-2-fluoro-N-isopropylbenzamide] | 254 to 257 °C |  | 50 to 75% | 0 to 25% |  |  |  |
| COCc1ccc(-c2nn(C(C)c3oc4cccc(F)c4c(=O)c3-c3cccc(F)c3)c3ncnc(N)c23)cc1 (stereo not shown) [Example 72, 2-(1-(4-amino-3-(4-(methoxymethyl)phenyl)-1H-pyrazolo[3,4-d]pyrimidin-1-yl)ethyl)-5-fluoro-3-(3-fluorophenyl)-4H-chromen-4-one] | 204 to 207 °C | 0 to 25% |  |  |  |  | inhibition at 0.1 µM (PI3kγ; 100 nM (Examples 60-137)): 25 to 50% |
| Cc1nc(C)c(-c2nn(C(C)c3oc4cccc(F)c4c(=O)c3-c3cccc(F)c3)c3ncnc(N)c23)s1 (stereo not shown) [Example 75, 2-(1-(4-amino-3-(2,4-dimethylthiazol-5-yl)-1H-pyrazolo[3,4-d]pyrimidin-1-yl)ethyl)-5-fluoro-3-(3-fluorophenyl)-4H-chromen-4-one] | 252 to 255 °C | 25 to 50% |  |  |  |  | inhibition at 0.1 µM (PI3kγ; 100 nM (Examples 60-137)): 0 to 25% |
| C[C@H](c1oc2cccc(F)c2c(=O)c1-c1cccc(F)c1)n1ncc2c(N)ncnc21 [Example 16b, (−)-2-(1-(4-amino-1H-pyrazolo[3,4-d]pyrimidin-1-yl)ethyl)-5-fluoro-3-(3-fluorophenyl)-4H-chromen-4-one] | 198 to 201 °C |  |  |  |  |  |  |
| CC(c1oc2cccc(F)c2c(=O)c1-c1cccc(F)c1)n1cnc2c(N3CCOCC3)ncnc21 (stereo not shown) (as salt: potassium) [Example 119, 5-fluoro-3-(3-fluorophenyl)-2-(1-(6-morpholino-9H-purin-9-yl)ethyl)-4H-chromen-4-one] | 239 to 241 °C |  |  |  |  |  |  |
| Cc1ccccc1-c1c(C(C)Nc2ncnc3[nH]cnc23)oc2cccc(F)c2c1=O (stereo not shown) [Example 138, 2-(1-(9H-purin-6-ylamino)ethyl)-5-fluoro-3-o-tolyl-4H-chromen-4-one] | 275 to 277 °C |  |  |  |  |  |  |
| Cc1cc(-c2nn(C(C)c3oc4cccc(F)c4c(=O)c3-c3cccc(F)c3)c3ncnc(N)c23)ccc1OC(C)C (stereo not shown) (as salt: sodium) [Example 50, 2-(1-(4-amino-3-(4-isopropoxy-3-methylphenyl)-1H-pyrazolo[3,4-d]pyrimidin-1-yl)ethyl)-5-fluoro-3-(3-fluorophenyl)-4H-chromen-4-one] | 185 to 188 °C |  |  |  |  |  |  |
| CC(c1oc2cccc(F)c2c(=O)c1-c1cccc(F)c1)n1nc(N2CCOCC2)c2c(N)ncnc21 (stereo not shown) [Example 37, 2-(1-(4-amino-3-morpholino-1H-pyrazolo[3,4-d]pyrimidin-1-yl)ethyl)-5-fluoro-3-(3-fluorophenyl)-4H-chromen-4-one] |  |  | 50 to 75% | 0 to 25% | 25 to 50% | 0 to 25% |  |
| CC(c1oc2cccc(F)c2c(=O)c1-c1ccc(F)cc1)n1nc(-c2ccc(OC(F)F)c(F)c2)c2c(N)ncnc21 (single isomer, unassigned) [Example 97] |  | 25 to 50% |  |  | 25 to 50% | 25 to 50% | inhibition at 0.1 µM (PI3kγ; 100 nM (Examples 60-137)): 25 to 50% |
| CC(c1oc2cccc(F)c2c(=O)c1-c1cccc(F)c1)n1nc(-c2ccc(NCCO)c(F)c2)c2c(N)ncnc21 (stereo not shown) [Example 22, 2-(1-(4-amino-3-(3-fluoro-4-(2-hydroxyethylamino)phenyl)-1H-pyrazolo[3,4-d]pyrimidin-1-yl)ethyl)-5-fluoro-3-(3-fluorophenyl)-4H-chromen-4-one] |  |  | 25 to 50% | 75 to 100% | 0 to 25% | 25 to 50% |  |
| CC(c1oc2cccc(F)c2c(=O)c1-c1cccc(F)c1)n1nc(-c2ccc(N3CCOCC3)c(Cl)c2)c2c(N)ncnc21 (stereo not shown) [Example 113, 2-(1-(4-amino-3-(3-chloro-4-morpholinophenyl)-1H-pyrazolo[3,4-d]pyrimidin-1-yl)ethyl)-5-fluoro-3-(3-fluorophenyl)-4H-chromen-4-one] |  | 50 to 75% |  |  |  |  | IC50 (PI3kγ): 50 to 100 nM; % inhibition (PI3kγ) 100 nM (PI3kγ; 100 nM (Examples 60-137), 0.1 µM): B (B=>50 to 75%); % inhibition (PI3kβ) 1 uM (PI3kβ): D (D=0 to 25%); % inhibition (PI3kα) 1 uM (PI3kα): C (C=>25 to 50%); IC50 (PI3kδ): ≤ 50 nM |
| CC(c1oc2cccc(F)c2c(=O)c1-c1cccc(F)c1)n1nc(-c2cc3ccccc3o2)c2c(N)ncnc21 (stereo not shown) [Example 14, 2-(1-(4-amino-3-(benzofuran-2-yl)-1H-pyrazolo[3,4-d]pyrimidin-1-yl)ethyl)-5-fluoro-3-(3-fluorophenyl)-4H-chromen-4-one] |  |  | 75 to 100% | 75 to 100% | 0 to 25% | 25 to 50% | IC50 (PI3kγ): 50 to 100 nM; IC50 (PI3kδ): 50 to 100 nM |
| CC(c1oc2cccc(F)c2c(=O)c1-c1cccc(F)c1)n1nc(-c2cn[nH]c2)c2c(N)ncnc21 (stereo not shown) [Example 10, 2-(1-(4-amino-3-(1H-pyrazol-4-yl)-1H-pyrazolo[3,4-d]pyrimidin-1-yl)ethyl)-5-fluoro-3-(3-fluorophenyl)-4H-chromen-4-one] |  |  | 75 to 100% | 25 to 50% | 0 to 25% | 25 to 50% | IC50 (PI3kγ): 100 to 300 nM |
| CNc1ncnc2c1ncn2C(C)c1oc2cccc(F)c2c(=O)c1-c1cccc(F)c1 (stereo not shown) (as salt: potassium) [Example 111, 5-fluoro-3-(3-fluorophenyl)-2-(1-(6-(methylamino)-9H-purin-9-yl)ethyl)-4H-chromen-4-one] | 207 to 209 °C |  |  |  |  |  |  |
| CC(c1oc2cccc(F)c2c(=O)c1-c1cccc(F)c1)n1nc(-c2ccc(OC3CN(C(c4ccccc4)c4ccccc4)C3)c(F)c2)c2c(N)ncnc21 (stereo not shown) [Example 44, 2-(1-(4-amino-3-(4-(1-benzhydrylazetidin-3-yloxy)-3-fluorophenyl)-1H-pyrazolo[3,4-d]pyrimidin-1-yl)ethyl)-5-fluoro-3-(3-fluorophenyl)-4H-chromen-4-one] |  |  | 25 to 50% | 25 to 50% | 0 to 25% | 0 to 25% |  |
| CCc1nn(C(C)c2oc3cccc(F)c3c(=O)c2-c2cccc(F)c2)c2ncnc(N)c12 (stereo not shown) [Example 34, 2-(1-(4-amino-3-ethyl-1H-pyrazolo[3,4-d]pyrimidin-1-yl)ethyl)-5-fluoro-3-(3-fluorophenyl)-4H-chromen-4-one] |  |  | 50 to 75% | 50 to 75% | 25 to 50% | 0 to 25% |  |
